“And” between values parts separate entries of the source, which are not always exact repeats. Equal values may be shown once. Inconclusive results and toxic doses are left out.
Test system: BDF1 mice, P388 leukemia ip, median survival T/C
Experiment: NCI In Vivo Anticancer Drug Screen. Data for tumor model P388 Leukemia (intraperitoneal) in B6D2F1 (BDF1) mice
Conditions: endpoint: median survival time, higher = longer survival
Summary of the method: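 Mice carrying the transplantable tumour receive compound or vehicle. Survival is followed in each arm, and the treated measure is divided by the vehicle measure.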

[1] = dose: 25.0 mg/kg/injection, schedule: Q01DX009 (ip), vehicle: Klucel (hydroxypropylcellulose) (HPC)
[2] = dose: 50.0 mg/kg/injection, schedule: Q01DX009 (ip), vehicle: Klucel (hydroxypropylcellulose) (HPC)
[3] = dose: 100.0 mg/kg/injection, schedule: Q01DX009 (ip), vehicle: Klucel (hydroxypropylcellulose) (HPC)
[4] = dose: 100.0 mg/kg/injection, schedule: Q04DX003 (ip), vehicle: Klucel (hydroxypropylcellulose) (HPC)
[5] = dose: 200.0 mg/kg/injection, schedule: Q04DX003 (ip), vehicle: Klucel (hydroxypropylcellulose) (HPC)
[6] = dose: 100.0 mg/kg/injection, schedule: Q04DX003 (ip), vehicle: saline with Tween-80
[7] = dose: 200.0 mg/kg/injection, schedule: Q04DX003 (ip), vehicle: saline with Tween-80
[8] = dose: 400.0 mg/kg/injection, schedule: Q04DX003 (ip), vehicle: saline with Tween-80
[9] = dose: 4.0 mg/kg/injection, schedule: Q01DX009 (ip), vehicle: saline with Tween-80
[10] = dose: 9.0 mg/kg/injection, schedule: Q01DX009 (ip), vehicle: saline with Tween-80
[11] = dose: 100.0 mg/kg/injection, schedule: Q01DX009 (ip), vehicle: saline with Tween-80
[12] = dose: 200.0 mg/kg/injection, schedule: Q01DX009 (ip), vehicle: saline with Tween-80
[13] = dose: 50.0 mg/kg/injection, schedule: Q01DX009 (ip), vehicle: saline with Tween-80

## Cc1c(C(=O)CCl)c(=O)n(-c2ccccc2)n1C
[1]
  T/C: 100 % of control
dose: 25.0 mg/kg/injection, schedule: Q04DX003 (ip), vehicle: Klucel (hydroxypropylcellulose) (HPC)
  T/C: 96 % of control
[2]
  T/C: 104 % of control
dose: 50.0 mg/kg/injection, schedule: Q04DX003 (ip), vehicle: Klucel (hydroxypropylcellulose) (HPC)
  T/C: 100 % of control
[3]
  T/C: 91 % of control
[4]
  T/C: 100 % of control and 103 % of control

## CC1(C)CC(=O)C2OC2(C)C1 (centres undefined)
[3]
  T/C: 100 % of control
[4]
  T/C: 104 % of control
dose: 200.0 mg/kg/injection, schedule: Q01DX009 (ip), vehicle: Klucel (hydroxypropylcellulose) (HPC)
  T/C: 90 % of control
[5]
  T/C: 95 % of control
dose: 400.0 mg/kg/injection, schedule: Q01DX009 (ip), vehicle: Klucel (hydroxypropylcellulose) (HPC)
  T/C: 109 % of control
dose: 400.0 mg/kg/injection, schedule: Q04DX003 (ip), vehicle: Klucel (hydroxypropylcellulose) (HPC)
  T/C: 108 % of control

## CN(C)c1ccc(N=C2C=CC(=O)C=C2)cc1
dose: 3.13 mg/kg/injection, schedule: Q01DX009 (ip), vehicle: saline with Tween-80
  T/C: 107 % of control
dose: 6.25 mg/kg/injection, schedule: Q01DX009 (ip), vehicle: saline with Tween-80
  T/C: 112 % of control and 117 % of control
dose: 12.5 mg/kg/injection, schedule: Q01DX009 (ip), vehicle: saline with Tween-80
  T/C: 110 % of control and 117 % of control
dose: 25.0 mg/kg/injection, schedule: Q01DX009 (ip), vehicle: saline with Tween-80
  T/C: 118 % of control

## O=c1oc(/C=C/c2ccccc2)nc2cc(Cl)ccc12
[6]
  T/C: 100 % of control
[7]
  T/C: 109 % of control
[8]
  T/C: 100 % of control

## Nc1ccc2nc3ccccc3c(NCCCCCCCCNc3c4ccccc4nc4ccc(N)cc34)c2c1
dose: 2.5 mg/kg/injection, schedule: Q01DX009 (ip), vehicle: water
  T/C: 154 % of control
dose: 10.0 mg/kg/injection, schedule: Q01DX009 (ip), vehicle: water
  T/C: 165 % of control

## COC(=O)[C@H]1[C@H]2C[C@@H]3c4[nH]c5cc(OC)ccc5c4CCN3C[C@H]2C[C@@H](OC(=O)/C=C/c2cc(OC)c(OC)c(OC)c2)[C@@H]1OC
dose: 0.63 mg/kg/injection, schedule: Q01DX009 (ip), vehicle: saline with Tween-80
  T/C: 90 % of control
dose: 1.25 mg/kg/injection, schedule: Q01DX009 (ip), vehicle: saline with Tween-80
  T/C: 90 % of control
dose: 2.5 mg/kg/injection, schedule: Q01DX009 (ip), vehicle: saline with Tween-80
  T/C: 90 % of control

## O=NN(CCCl)C(=O)Nc1ccc(CCCl)cc1
dose: 37.5 mg/kg/injection, schedule: Q01DX009 (ip), vehicle: other
  T/C: 90 % of control
dose: 37.5 mg/kg/injection, schedule: Q04DX003 (ip), vehicle: other
  T/C: 120 % of control
dose: 66.0 mg/kg/injection, schedule: Q04DX003 (ip), vehicle: other
  T/C: 90 % of control
dose: 75.0 mg/kg/injection, schedule: Q01DX009 (ip), vehicle: other
  T/C: 100 % of control
dose: 75.0 mg/kg/injection, schedule: Q04DX003 (ip), vehicle: other
  T/C: 120 % of control
dose: 99.0 mg/kg/injection, schedule: Q04DX003 (ip), vehicle: other
  T/C: 95 % of control
dose: 150.0 mg/kg/injection, schedule: Q01DX009 (ip), vehicle: other
  T/C: 105 % of control
dose: 150.0 mg/kg/injection, schedule: Q04DX003 (ip), vehicle: other
  T/C: 255 % of control and 95 % of control
dose: 225.0 mg/kg/injection, schedule: Q04DX003 (ip), vehicle: other
  T/C: 100 % of control

## CC(C)C(=O)c1ccc(-c2ccccc2)cc1
dose: 12.5 mg/kg/injection, schedule: Q01DX009 (ip), vehicle: water
  T/C: 105 % of control
dose: 25.0 mg/kg/injection, schedule: Q01DX009 (ip), vehicle: water
  T/C: 113 % of control
dose: 25.0 mg/kg/injection, schedule: Q04DX003 (ip), vehicle: water
  T/C: 97 % of control
dose: 50.0 mg/kg/injection, schedule: Q01DX009 (ip), vehicle: water
  T/C: 102 % of control
dose: 50.0 mg/kg/injection, schedule: Q04DX003 (ip), vehicle: water
  T/C: 101 % of control
dose: 100.0 mg/kg/injection, schedule: Q01DX009 (ip), vehicle: water
  T/C: 111 % of control
dose: 100.0 mg/kg/injection, schedule: Q04DX003 (ip), vehicle: water
  T/C: 97 % of control
dose: 200.0 mg/kg/injection, schedule: Q01DX009 (ip), vehicle: water
  T/C: 102 % of control
dose: 200.0 mg/kg/injection, schedule: Q04DX003 (ip), vehicle: water
  T/C: 92 % of control
dose: 400.0 mg/kg/injection, schedule: Q01DX009 (ip), vehicle: water
  T/C: 119 % of control
dose: 400.0 mg/kg/injection, schedule: Q04DX003 (ip), vehicle: water
  T/C: 89 % of control

## CCNC(=NC)c1ccc(NC(=O)c2ccc(C(=O)Nc3ccc(C(=NC)NCC)cc3)cc2)cc1
dose: 3.9 mg/kg/injection, schedule: Q01DX009 (ip), vehicle: saline with Tween-80
  T/C: 118 % of control
[9]
  T/C: 179 % of control
[10]
  T/C: 109 % of control

## O=C1C(=O)c2ccccc2-c2ccccc21.O=C1C(=O)c2ccccc2-c2ccccc21.[Hg]
dose: 1.5 mg/kg/injection, schedule: Q01DX009 (ip), vehicle: saline with Tween-80
  T/C: 110 % of control
dose: 2.6 mg/kg/injection, schedule: Q01DX009 (ip), vehicle: saline with Tween-80
  T/C: 100 % of control
dose: 3.0 mg/kg/injection, schedule: Q01DX009 (ip), vehicle: saline with Tween-80
  T/C: 112 % of control
[9]
  T/C: 110 % of control
dose: 6.0 mg/kg/injection, schedule: Q01DX009 (ip), vehicle: saline with Tween-80
  T/C: 116 % of control
[10]
  T/C: 110 % of control

## NNC(=O)c1c[nH]c2ccccc2c1=O
dose: 12.5 mg/kg/injection, schedule: Q01DX009 (ip), vehicle: Klucel (hydroxypropylcellulose) (HPC)
  T/C: 104 % of control
[1]
  T/C: 104 % of control
[2]
  T/C: 91 % of control
dose: 75.0 mg/kg/injection, schedule: Q01DX009 (ip), vehicle: Klucel (hydroxypropylcellulose) (HPC)
  T/C: 108 % of control
dose: 115.0 mg/kg/injection, schedule: Q01DX009 (ip), vehicle: Klucel (hydroxypropylcellulose) (HPC)
  T/C: 91 % of control
dose: 170.0 mg/kg/injection, schedule: Q01DX009 (ip), vehicle: Klucel (hydroxypropylcellulose) (HPC)
  T/C: 95 % of control

## Nc1n[nH]c(N)n1.[Ni]
[11]
  T/C: 100 % of control
[6]
  T/C: 91 % of control
[12]
  T/C: 95 % of control and 115 % of control
[7]
  T/C: 87 % of control
dose: 400.0 mg/kg/injection, schedule: Q01DX009 (ip), vehicle: saline with Tween-80
  T/C: 109 % of control
[8]
  T/C: 100 % of control

## O=C(NC12CC3CC(CC(C3)C1)C2)Oc1ccccc1
[13]
  T/C: 102 % of control
[11]
  T/C: 102 % of control
[12]
  T/C: 93 % of control

## [O-]c1c[n+](-c2ccccc2)no1
[13]
  T/C: 119 % of control
[12]
  T/C: 94 % of control

## COC(=O)c1c(Cl)c(Cl)c(Cl)c(Cl)c1C(=O)O
[13]
  T/C: 110 % of control

## CCSC1(SCC)C(=O)OC2=C(CCCC2)C1N(C)C (centres undefined)
[13]
  T/C: 90 % of control
[11]
  T/C: 103 % of control
[12]
  T/C: 105 % of control

## Nc1ccc(CCCCc2ccccc2)cc1
dose: 7.03 mg/kg/injection, schedule: Q04DX003 (ip), vehicle: saline
  T/C: 104 % of control
dose: 12.5 mg/kg/injection, schedule: Q01DX009 (ip), vehicle: saline
  T/C: 109 % of control
dose: 14.06 mg/kg/injection, schedule: Q04DX003 (ip), vehicle: saline
  T/C: 113 % of control
dose: 25.0 mg/kg/injection, schedule: Q01DX009 (ip), vehicle: saline
  T/C: 113 % of control
dose: 28.12 mg/kg/injection, schedule: Q04DX003 (ip), vehicle: saline
  T/C: 109 % of control
dose: 50.0 mg/kg/injection, schedule: Q01DX009 (ip), vehicle: saline
  T/C: 113 % of control
dose: 56.25 mg/kg/injection, schedule: Q04DX003 (ip), vehicle: saline
  T/C: 116 % of control
dose: 75.0 mg/kg/injection, schedule: Q01DX009 (ip), vehicle: saline
  T/C: 109 % of control

## CCCCCCCCCCCCCCOc1ccc(Cc2ccccc2)cc1
[4]
  T/C: 100 % of control
[5]
  T/C: 90 % of control

Reference: PubChem BioAssay AID328 (DTP/NCI, 2004)
